This is an account of results in PMC8607797 (Nature chemical biology, 2021).

Common to all, as to type: cell-based
The target of one experiment is T1, Ephx1 (Mus musculus, UniProt Q9D379).
T1 sequence (Q9D379 1-455): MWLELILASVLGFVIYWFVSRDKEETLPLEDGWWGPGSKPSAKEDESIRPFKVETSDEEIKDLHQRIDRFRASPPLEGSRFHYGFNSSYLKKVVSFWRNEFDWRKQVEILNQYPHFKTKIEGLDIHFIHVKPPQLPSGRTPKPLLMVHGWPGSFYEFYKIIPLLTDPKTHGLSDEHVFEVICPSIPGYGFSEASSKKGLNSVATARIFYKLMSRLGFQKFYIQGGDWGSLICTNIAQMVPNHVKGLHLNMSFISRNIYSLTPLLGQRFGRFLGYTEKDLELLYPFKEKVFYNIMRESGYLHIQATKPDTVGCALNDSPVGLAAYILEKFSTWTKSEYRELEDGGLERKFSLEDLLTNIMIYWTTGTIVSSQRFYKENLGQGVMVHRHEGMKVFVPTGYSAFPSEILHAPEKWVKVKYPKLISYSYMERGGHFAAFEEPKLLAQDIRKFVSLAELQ
The experiment is described as follows: live-cell chemoproteomic competition of probe […].

For a further experiment, the target named is T2, Cav1 (Mus musculus, UniProt P49817).
T2 sequence (P49817 2-178): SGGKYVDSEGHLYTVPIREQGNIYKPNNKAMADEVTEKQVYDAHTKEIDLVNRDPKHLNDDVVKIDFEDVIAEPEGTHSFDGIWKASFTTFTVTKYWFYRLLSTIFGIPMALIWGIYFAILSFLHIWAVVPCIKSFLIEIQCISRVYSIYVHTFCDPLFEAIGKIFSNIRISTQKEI
The experiment is described as follows: live-cell chemoproteomic competition of probe […].

For the next experiment, the target named is T3, Tmem97 (σ2 receptor) (Mus musculus, UniProt Q8VD00).
T3 sequence (Q8VD00 1-176): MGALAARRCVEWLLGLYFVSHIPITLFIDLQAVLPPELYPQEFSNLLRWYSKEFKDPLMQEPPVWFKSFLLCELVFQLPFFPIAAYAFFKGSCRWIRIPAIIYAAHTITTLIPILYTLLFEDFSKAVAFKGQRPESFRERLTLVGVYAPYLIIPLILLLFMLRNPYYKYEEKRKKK
Description: live-cell competition of probe […] labeling, in-gel fluorescence.

As to `CC(C)CCC[C@](C)(O)[C@H]1CC[C@H]2[C@@H]3CC=C4C[C@@H](O)CC[C@]4(C)[C@H]3CC[C@@]21C` [compound 1, 20(S)-hydroxycholesterol], the “live-cell chemoproteomic competition of probe 2 (TMT MS)” value at Ephx1 was “The most competable proteins encompassed the highly enriched targets Tmem97, Ephx1, and Cav1”; on Cav1, “The most competable proteins encompassed the highly enriched targets Tmem97, Ephx1, and Cav1”. For `CC(C)CCC[C@@](C)(O)[C@H]1CC[C@H]2[C@@H]3CC=C4C[C@@H](O)CC[C@]4(C)[C@H]3CC[C@@]21C` [compound 13, 20(R)-hydroxycholesterol], the “live-cell competition of probe 2 labeling, in-gel fluorescence” value on Tmem97 (σ2 receptor) was determined as 50% competition at 50.
